Tests used:
[1] = test system: A375 cells; assay: cells; details: Homo sapiens, A-375, read-out: A375 Viability EC50
[2] = molecular target: RAF kinases (Homo sapiens, UniProt P04049); assay: biochemical
[3] = molecular target: RAF kinases (Homo sapiens, UniProt P15056); assay: biochemical
[4] = molecular target: RAF kinases (Homo sapiens, UniProt P15056, V600E); assay: biochemical
[5] = test system: MEK1 phosphorylation in the A375 human melanoma cell line; assay: cells; details: A-375, read-out: pMEK IC50

RAF kinases (Homo sapiens, UniProt P04049), sequence (P04049 whole entry): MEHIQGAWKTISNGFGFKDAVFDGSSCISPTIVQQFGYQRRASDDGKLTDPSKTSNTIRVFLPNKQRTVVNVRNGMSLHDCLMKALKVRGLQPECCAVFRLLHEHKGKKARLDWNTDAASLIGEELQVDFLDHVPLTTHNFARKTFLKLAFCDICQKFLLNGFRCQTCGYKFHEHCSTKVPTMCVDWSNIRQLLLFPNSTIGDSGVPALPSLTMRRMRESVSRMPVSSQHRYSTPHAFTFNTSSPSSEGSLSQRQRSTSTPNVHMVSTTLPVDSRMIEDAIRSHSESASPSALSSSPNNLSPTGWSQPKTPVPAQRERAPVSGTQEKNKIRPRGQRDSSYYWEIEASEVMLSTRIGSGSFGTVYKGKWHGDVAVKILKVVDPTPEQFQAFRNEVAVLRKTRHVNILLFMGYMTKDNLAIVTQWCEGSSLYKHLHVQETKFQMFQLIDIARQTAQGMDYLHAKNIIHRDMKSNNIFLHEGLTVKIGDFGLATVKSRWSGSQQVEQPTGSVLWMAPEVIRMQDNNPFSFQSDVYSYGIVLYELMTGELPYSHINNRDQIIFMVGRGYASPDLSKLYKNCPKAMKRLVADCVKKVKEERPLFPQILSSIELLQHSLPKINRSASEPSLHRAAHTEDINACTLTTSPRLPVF
RAF kinases (Homo sapiens, UniProt P15056, V600E), sequence (P15056 whole entry V600E): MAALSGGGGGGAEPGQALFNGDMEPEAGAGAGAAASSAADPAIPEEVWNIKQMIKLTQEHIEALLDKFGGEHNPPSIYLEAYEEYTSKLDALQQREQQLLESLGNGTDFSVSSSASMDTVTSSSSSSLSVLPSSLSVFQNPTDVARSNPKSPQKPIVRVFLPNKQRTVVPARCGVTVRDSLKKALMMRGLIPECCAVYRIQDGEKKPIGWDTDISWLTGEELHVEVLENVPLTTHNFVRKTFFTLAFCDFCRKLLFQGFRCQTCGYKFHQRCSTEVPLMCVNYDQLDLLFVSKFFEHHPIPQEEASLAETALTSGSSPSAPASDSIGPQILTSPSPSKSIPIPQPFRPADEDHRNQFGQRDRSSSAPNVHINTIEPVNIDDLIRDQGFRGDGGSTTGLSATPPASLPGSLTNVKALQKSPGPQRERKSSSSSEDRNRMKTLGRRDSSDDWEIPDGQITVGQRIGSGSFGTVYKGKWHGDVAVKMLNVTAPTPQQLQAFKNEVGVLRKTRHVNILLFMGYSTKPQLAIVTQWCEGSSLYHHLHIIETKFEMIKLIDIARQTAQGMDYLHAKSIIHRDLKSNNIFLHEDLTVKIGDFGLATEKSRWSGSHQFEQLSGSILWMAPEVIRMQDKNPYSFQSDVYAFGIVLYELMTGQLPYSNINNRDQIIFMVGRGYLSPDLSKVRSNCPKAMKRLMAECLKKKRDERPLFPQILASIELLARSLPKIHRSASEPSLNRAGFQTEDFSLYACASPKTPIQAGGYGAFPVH
RAF kinases (Homo sapiens, UniProt P15056), sequence (P15056 whole entry): as the sequence (P15056 whole entry V600E) above, with E600V counted along it

Compound | EC50 [1] [nM] | Kd [2] [nM] | Kd [3] [nM] | Kd [4] [nM] | IC50 [5] [nM]
COc1cc2ncnc(Oc3cccc(NC(=O)Nc4cc(C(C)(C)F)no4)c3)c2cc1OCCCS(C)(=O)=O [Ex 42, 1-(3-(2-fluoropropan-2-yl)isoxazol-5-yl)-3-(3-(7-methoxy-6-(3-(methylsulfonyl)propoxy)quinazolin-4-yloxy)phenyl)urea] | 500 to 1000 | < 250 | < 250 | < 250 | 250 to 500
COc1ccc2ncnc(Sc3cccc(NC(=O)Nc4cc(C(C)(C)C)on4)c3)c2c1 [Ex 49, 1-(5-tert-butylisoxazol-3-yl)-3-(3-(6-methoxyquinazolin-4-ylthio)phenyl)urea] | > 1000 | 500 to 1000 | – | 250 to 500 | 500 to 1000
CCOc1cc2ncnc(Sc3cccc(NC(=O)Nc4cc(C(C)(C)C)on4)c3)c2cc1OC [Ex 50, 1-(5-tert-butylisoxazol-3-yl)-3-[3-(7-ethoxy-6-methoxyquinazolin-4-ylthio)phenyl]urea] | > 1000 | 250 to 500 | 500 to 1000 | 250 to 500 | 250 to 500
COc1cc2c(Sc3cccc(NC(=O)Nc4cc(C(C)(C)C)on4)c3)ncnc2cc1OCCN1CCC(CO)CC1 [Ex 86, 1-(5-tert-butylisoxazol-3-yl)-3-(3-(7-(2-(4-(hydroxymethyl)piperidin-1-yl)ethoxy)-6-methoxyquinazolin-4-ylthio)phenyl)urea] | > 1000 | 500 to 1000 | – | 250 to 500 | < 250
COCCOc1ccc2ncnc(Sc3cccc(NC(=O)Nc4cc(C(C)(C)C)on4)c3)c2c1 [Ex 87, 1-(5-tert-butylisoxazol-3-yl)-3-(3-(6-(2-methoxyethoxy)quinazolin-4-ylthio)phenyl)urea] | > 1000 | 500 to 1000 | – | 250 to 500 | 250 to 500
COc1cc(OC2CCOCC2)c2c(Oc3cccc(NC(=O)Nc4cc(C(C)(C)C)on4)c3)ncnc2c1 [Ex 94, 1-(5-tert-butylisoxazol-3-yl)-3-{3-[7-methoxy-5-(tetrahydro-2H-pyran-4-yloxy)quinazolin-4-yloxy]phenyl}urea] | > 1000 | 250 to 500 | – | 250 to 500 | 250 to 500
COc1cc2ncnc(Oc3cccc(NC(=O)Nc4cc(-c5ccccc5)on4)c3)c2cc1OC [Ex 113, 1-(3-(6,7-dimethoxyquinazolin-4-yloxy)phenyl)-3-(5-phenylisoxazol-3-yl)urea] | > 1000 | – | 500 to 1000 | 250 to 500 | 500 to 1000
COc1cc(NC(=O)Nc2cccc(Sc3ncnc4cc(OC)c(OC)cc34)c2)cc(C(F)(F)F)c1 [Ex 115, 1-(3-(6,7-dimethoxyquinazolin-4-ylthio)phenyl)-3-(3-methoxy-5-(trifluoromethyl)phenyl)urea] | > 1000 | 250 to 500 | 500 to 1000 | 250 to 500 | > 1000
COc1cc(NC(=O)Nc2cccc(Oc3ncnc4cc(OC)c(OC)cc34)c2)cc(C(F)(F)F)c1 [Ex 116, 1-(3-(6,7-dimethoxyquinazolin-4-yloxy)phenyl)-3-(3-methoxy-5-(trifluoromethyl)phenyl)urea] | > 1000 | 250 to 500 | 500 to 1000 | 250 to 500 | > 1000
COCCOc1cc(NC(=O)Nc2cccc(Oc3ncnc4cc(OCCOC)c(OC)cc34)c2)cc(C(F)(F)F)c1 [Ex 117, 1-(3-(6-methoxy-7-(2-methoxyethoxy)quinazolin-4-yloxy)phenyl)-3-(3-(2-methoxyethoxy)-5-(trifluoromethyl)phenyl)urea] | > 1000 | 250 to 500 | 500 to 1000 | 250 to 500 | > 1000
COc1cc2ncnc(Oc3cccc(NC(=O)Nc4cc(C5CCOCC5)no4)c3)c2cc1OC [Ex 123, 1-(3-(6,7-dimethoxyquinazolin-4-yloxy)phenyl)-3-(3-(tetrahydro-2H-pyran-4-yl)isoxazol-5-yl)urea] | > 1000 | 500 to 1000 | – | 250 to 500 | > 1000
COCCOc1cc(NC(=O)Nc2cccc(Oc3ncnc4cc(OC)c(OC)cc34)c2)cc(C(F)(F)F)c1 [Ex 129, 1-(3-(6,7-dimethoxyquinazolin-4-yloxy)phenyl)-3-(3-(2-methoxyethoxy)-5-(trifluoromethyl)phenyl)urea] | > 1000 | 250 to 500 | – | 250 to 500 | > 1000
COc1cc2ncnc(Oc3cccc(NC(=O)Nc4cc(Cl)cc(C(F)(F)F)c4)c3)c2cc1OC [Ex 140, 1-(3-chloro-5-(trifluoromethyl)phenyl)-3-(3-(6,7-dimethoxyquinazolin-4-yloxy)phenyl)urea] | > 1000 | 500 to 1000 | – | 500 to 1000 | > 1000
COc1cc2ncnc(Oc3cccc(NC(=O)Nc4cc(C(F)(F)F)ccc4Cl)c3)c2cc1OC [Ex 142, 1-(2-chloro-5-(trifluoromethyl)phenyl)-3-(3-(6,7-dimethoxyquinazolin-4-yloxy)phenyl)urea] | > 1000 | 250 to 500 | – | 250 to 500 | > 1000
COc1cc2ncnc(Oc3cccc(NC(=O)Nc4nccc(C(F)(F)F)n4)c3)c2cc1OC [Ex 143, 1-(3-(6,7-dimethoxyquinazolin-4-yloxy)phenyl)-3-(4-(trifluoromethyl)pyrimidin-2-yl)urea] | > 1000 | 250 to 500 | – | 250 to 500 | > 1000
COCCOc1cc(NC(=O)Nc2cccc(Oc3ncnc4cc(OC)c(OC)cc34)c2)ccc1C(F)(F)F [Ex 147, 1-(3-(6,7-dimethoxyquinazolin-4-yloxy)phenyl)-3-(3-(2-methoxyethoxy)-4-(trifluoromethyl)phenyl)urea] | > 1000 | 500 to 1000 | – | 250 to 500 | > 1000
COc1cc2ncnc(Oc3cccc(NC(=O)Nc4cc(C5CCCC5)no4)c3)c2cc1OC [Ex 163, 1-(3-cyclopentylisoxazol-5-yl)-3-(3-(6,7-dimethoxyquinazolin-4-yloxy)phenyl)urea] | > 1000 | 500 to 1000 | – | 250 to 500 | > 1000
COc1cc2ncnc(Sc3cccc(NC(=O)Nc4ccc(C(C)(C)C)cc4)c3)c2cc1OC [Ex 174, 1-(4-tert-butylphenyl)-3-(3-(6,7-dimethoxyquinazolin-4-ylthio)phenyl)urea] | > 1000 | 250 to 500 | – | 250 to 500 | > 1000
COc1cc2ncnc(Sc3cccc(NC(=O)Nc4ccc(C(F)(F)F)c(F)c4)c3)c2cc1OC [Ex 188, 1-(3-(6,7-dimethoxyquinazolin-4-ylthio)phenyl)-3-(3-fluoro-4-(trifluoromethyl)phenyl)urea] | > 1000 | 500 to 1000 | – | 250 to 500 | > 1000
COc1cc2ncnc(Sc3cccc(NC(=O)Nc4cc(CN5CCOCC5)cc(C(F)(F)F)c4)c3)c2cc1OC [Ex 189, 1-(3-(6,7-dimethoxyquinazolin-4-ylthio)phenyl)-3-(3-(morpholinomethyl)-5-(trifluoromethyl)phenyl)urea] | 500 to 1000 | 500 to 1000 | – | 250 to 500 | 500 to 1000
COc1cc2ncnc(Sc3cccc(NC(=O)Nc4cc(C(F)(F)F)nn4-c4ccc(F)cc4)c3)c2cc1OC [Ex 198, 1-[3-(6,7-dimethoxyquinazolin-4-ylthio)phenyl]-3-[1-(4-fluorophenyl)-3-(trifluoromethyl)-1H-pyrazol-5-yl]urea] | 500 to 1000 | – | – | 500 to 1000 | 250 to 500
COCCOc1cc(NC(=O)Nc2cccc(Sc3ncnc4cc(OC)c(OC)cc34)c2)cc(C(F)(F)F)c1 [Ex 200, 1-(3-(6,7-dimethoxyquinazolin-4-ylthio)phenyl)-3-(3-(2-methoxyethoxy)-5-(trifluoromethyl)phenyl)urea] | > 1000 | – | 500 to 1000 | 500 to 1000 | > 1000
COCCOc1cc2ncnc(Oc3cccc(NC(=O)Nc4cc(C(=O)N5CCOCC5)cc(C(F)(F)F)c4)c3)c2cc1OC [Ex 205, 1-(3-(6-methoxy-7-(2-methoxyethoxy)quinazolin-4-yloxy)phenyl)-3-(3-(morpholine-4-carbonyl)-5-(trifluoromethyl)phenyl)urea] | > 1000 | – | – | 250 to 500 | > 1000
COCCOc1cc2ncnc(Oc3cccc(NC(=O)Nc4cc(C(C)(C)C)nn4-c4ccccc4)c3)c2cc1OC [Ex 210, 1-(3-tert-butyl-1-phenyl-1H-pyrazol-5-yl)-3-(3-(6-methoxy-7-(2-methoxyethoxy)quinazolin-4-yloxy)phenyl)urea] | – | > 1000 | > 1000 | > 1000 | < 250
CCOC(C)(C)c1cc(NC(=O)Nc2cccc(Oc3ncnc4cc(OCCOC)c(OC)cc34)c2)n(-c2ccccc2)n1 [Ex 212, 1-[3-(2-ethoxypropan-2-yl)-1-phenyl-1H-pyrazol-5-yl]-3-{3-[6-methoxy-7-(2-methoxyethoxy)quinazolin-4-yloxy]phenyl}urea] | > 1000 | – | – | 250 to 500 | 500 to 1000
CCOC(C)(C)c1cc(NC(=O)Nc2cccc(Sc3ncnc4cc(OCCOC)c(OC)cc34)c2)n(-c2ccccc2)n1 [Ex 241, 1-[3-(2-ethoxypropan-2-yl)-1-phenyl-1H-pyrazol-5-yl]-3-{3-[6-methoxy-7-(2-methoxyethoxy)quinazolin-4-ylthio]phenyl}urea] | > 1000 | – | – | 250 to 500 | 500 to 1000
COCCOc1cc2ncnc(Sc3cccc(NC(=O)Nc4cc(C(C)(C)C)nn4-c4ccc(C)cc4)c3)c2cc1OC [Ex 277, 1-(3-tert-butyl-1-p-tolyl-1H-pyrazol-5-yl)-3-(3-(6-methoxy-7-(2-methoxyethoxy)quinazolin-4-ylthio)phenyl)urea] | – | > 1000 | > 1000 | 250 to 500 | < 250

Reference: patent US8618289B2 (Ambit Biosciences Corporation, priority 2008, dated 2013)
